In patent US20090306133A1, “New Acetyl Coenzyme A Carboxylase (ACC) Inhibitors And Uses In Treatments Of Obesity And Diabetes Mellitus - 087” (ASTRAZENECA AB, priority 2007, published 2009):

Assays:
[1] = biological target: Human recombinant Acetyl-CoA Carboxylase 1 (ACC1) (Homo sapiens, UniProt Q13085); experiment: Assay X: ACC1 inhibition, inorganic phosphate (malachite green); format: biochemical; conditions: Assay X: 37° C., 1.5 h, 5 min pre-incubation
Method: (§1) Human recombinant Acetyl-CoA Carboxylase 1 and Acetyl-CoA Carboxylase 2 (ACC1 and ACC2) were assayed by determining the amount of inorganic phosphate (Pi) generated. Pre-incubation of 15 μL enzyme together with 0.75 μL DMSO+/−compound for 5 min was done before the reaction was initiated by the addition of 10 μL substrate. […] After 1.5 h the reaction was stopped by addition of 74 μL of water followed by extensive mixing, split and transfer of 2×40 μL to a read-plate encompassing 30 μL distilled H2O per well (n=2→n=4). Colour reaction was initiated by addition of 30 μL malachite green reagent per well and allowed 15 min before absorbance reading of the plates at 660 nm. The malachite green reagent was prepared by mixing 16.4 mL ammonium molybdate solution (7.5%), 1.64 mL Tween (11%) with 82 mL Malachite Green/H2SO4-solution (0.7 g Malachite Green to 1000 mL of 10% (v/v) H2SO4).
(§2) All compounds were tested in triplicate at 10 different concentrations. Control compound (0, 50 and 100% effect) was included on each plate. […] Curve fitting was done using the following equation: y=(A+((B−A)/(1+((x/C)̂D)))) where A and B represents the curve bottom (% inhibition) and the total amplitude (% inhibition), respectively, whereas C and D are the apparent IC50 and curve slope, respectively.

[2] = biological target: Human recombinant Acetyl-CoA Carboxylase 2 (ACC2) (Homo sapiens, UniProt O00763); experiment: Assay X: ACC2 inhibition, inorganic phosphate (malachite green); format: biochemical; conditions: Assay X: 37° C., 1.5 h, 5 min pre-incubation
Chain of Human recombinant Acetyl-CoA Carboxylase 2 (ACC2) (O00763 whole entry): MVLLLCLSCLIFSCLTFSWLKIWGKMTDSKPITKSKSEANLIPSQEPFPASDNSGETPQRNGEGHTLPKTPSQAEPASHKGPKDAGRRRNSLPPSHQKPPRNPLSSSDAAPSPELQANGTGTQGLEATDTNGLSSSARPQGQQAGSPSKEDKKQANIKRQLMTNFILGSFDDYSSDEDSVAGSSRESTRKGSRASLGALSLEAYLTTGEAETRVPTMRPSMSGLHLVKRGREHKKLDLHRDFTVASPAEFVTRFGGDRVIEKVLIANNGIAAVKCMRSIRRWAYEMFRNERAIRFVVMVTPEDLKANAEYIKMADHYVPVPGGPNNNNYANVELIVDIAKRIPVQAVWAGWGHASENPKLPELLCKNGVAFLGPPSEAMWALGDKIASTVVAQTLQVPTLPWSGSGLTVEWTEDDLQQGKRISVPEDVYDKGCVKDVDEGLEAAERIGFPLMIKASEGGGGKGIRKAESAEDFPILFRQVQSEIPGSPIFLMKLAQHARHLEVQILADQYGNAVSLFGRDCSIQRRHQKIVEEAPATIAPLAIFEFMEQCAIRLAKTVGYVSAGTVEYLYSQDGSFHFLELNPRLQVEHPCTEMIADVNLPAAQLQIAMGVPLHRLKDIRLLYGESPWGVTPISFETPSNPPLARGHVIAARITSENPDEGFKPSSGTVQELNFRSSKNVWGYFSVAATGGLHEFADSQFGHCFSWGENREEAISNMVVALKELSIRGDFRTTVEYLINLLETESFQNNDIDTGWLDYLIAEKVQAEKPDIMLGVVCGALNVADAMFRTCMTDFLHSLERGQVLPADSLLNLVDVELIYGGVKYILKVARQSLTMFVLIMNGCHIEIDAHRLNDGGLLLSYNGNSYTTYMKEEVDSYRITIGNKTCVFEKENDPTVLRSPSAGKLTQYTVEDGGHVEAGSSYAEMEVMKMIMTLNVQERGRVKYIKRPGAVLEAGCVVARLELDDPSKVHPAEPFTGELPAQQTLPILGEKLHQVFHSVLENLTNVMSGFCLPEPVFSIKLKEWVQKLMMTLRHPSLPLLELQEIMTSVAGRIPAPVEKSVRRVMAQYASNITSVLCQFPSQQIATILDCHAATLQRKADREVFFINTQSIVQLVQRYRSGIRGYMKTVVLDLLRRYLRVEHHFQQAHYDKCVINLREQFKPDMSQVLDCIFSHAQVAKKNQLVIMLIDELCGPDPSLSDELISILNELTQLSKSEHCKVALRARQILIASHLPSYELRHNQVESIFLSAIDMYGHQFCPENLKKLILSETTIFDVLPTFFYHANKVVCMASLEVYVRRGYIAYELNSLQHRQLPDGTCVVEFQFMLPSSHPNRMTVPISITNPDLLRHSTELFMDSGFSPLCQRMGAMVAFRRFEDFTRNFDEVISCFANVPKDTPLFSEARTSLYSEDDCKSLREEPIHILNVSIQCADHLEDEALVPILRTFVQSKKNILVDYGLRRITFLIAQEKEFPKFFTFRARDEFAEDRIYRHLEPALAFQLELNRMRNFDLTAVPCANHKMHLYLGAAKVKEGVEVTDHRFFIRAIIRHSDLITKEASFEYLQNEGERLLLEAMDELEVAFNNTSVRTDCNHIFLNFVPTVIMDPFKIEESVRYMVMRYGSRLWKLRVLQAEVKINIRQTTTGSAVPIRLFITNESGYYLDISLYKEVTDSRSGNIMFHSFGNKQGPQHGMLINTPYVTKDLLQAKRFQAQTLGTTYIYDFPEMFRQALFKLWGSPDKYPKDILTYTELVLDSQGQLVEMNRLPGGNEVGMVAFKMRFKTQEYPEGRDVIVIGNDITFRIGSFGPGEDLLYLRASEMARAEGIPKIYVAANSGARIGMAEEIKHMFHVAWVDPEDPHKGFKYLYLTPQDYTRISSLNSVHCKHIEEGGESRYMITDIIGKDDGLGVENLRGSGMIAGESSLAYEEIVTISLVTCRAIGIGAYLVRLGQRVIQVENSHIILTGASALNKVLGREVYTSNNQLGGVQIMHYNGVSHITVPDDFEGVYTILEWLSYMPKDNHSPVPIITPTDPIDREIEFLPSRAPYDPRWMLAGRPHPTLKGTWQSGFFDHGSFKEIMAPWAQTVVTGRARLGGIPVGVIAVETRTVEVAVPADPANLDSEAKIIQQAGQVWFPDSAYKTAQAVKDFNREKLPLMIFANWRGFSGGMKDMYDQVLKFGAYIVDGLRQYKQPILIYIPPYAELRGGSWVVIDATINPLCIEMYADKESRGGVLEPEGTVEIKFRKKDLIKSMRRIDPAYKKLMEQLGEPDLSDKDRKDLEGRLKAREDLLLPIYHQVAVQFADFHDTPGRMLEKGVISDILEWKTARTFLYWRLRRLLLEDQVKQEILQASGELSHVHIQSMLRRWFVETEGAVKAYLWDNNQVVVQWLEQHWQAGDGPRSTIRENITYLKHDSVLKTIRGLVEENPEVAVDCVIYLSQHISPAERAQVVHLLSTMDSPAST
Method: as §1, §2

IC50 [1] [µM] | IC50 [2] [µM] | SMILES
1.33 | 0.24 | CN(C)CCn1cc(-c2cc(C(=O)NC[C@H]3CC[C@H](CNC(=O)OC(C)(C)C)CC3)c3ccccc3n2)cn1 [Example 242, tert-Butyl {[trans-4-({[(2-{1-[2-(dimethylamino)ethyl]-1H-pyrazol-4-yl}quinolin-4-yl)carbonyl]amino}methyl)cyclohexyl]methyl}carbamate]
0.51 | 0.05 | CC(C)(C)OC(=O)NC[C@H]1CC[C@H](CNC(=O)c2cc(N3CCC(CCN)CC3)nc3ccccc23)CC1 [Example 194, tert-Butyl [(trans-4-{[({2-[4-(2-aminoethyl)piperidin-1-yl]quinolin-4-yl}carbonyl)amino]methyl}cyclohexyl)methyl]carbamate]
1.04 | 0.13 | CC(C)(C)OC(=O)NC[C@H]1CC[C@H](CNC(=O)c2cc(N3CCC(CC(O)CN4CCOCC4)CC3)nc3ccccc23)CC1 (relative stereo) [Example 207, tert-Butyl[(trans-4-{[({2-[4-(2-hydroxy-3-morpholin-4-ylpropyl)piperidin-1-yl]quinolin-4-yl}-carbonyl)amino]methyl}cyclohexyl)methyl]-carbamate]
9.1 | 3.4 | CC(C)(C)OC(=O)NC[C@H]1CC[C@H](CNC(=O)c2c(N)sc3ccccc23)CC1 [Example 222, tert-Butyl {[trans-4-({[(2-amino-1-benzothiophen-3-yl)carbonyl]amino}methyl)-cyclohexyl]methyl}carbamate]
9.64 | 1.98 | O=C(NC[C@H]1CC[C@H](CNC(=O)c2cc(-c3ccc(NCCO)nc3)nc3ccccc23)CC1)OC1CCOCC1 [Example 197, Tetrahydro-2H-pyran-4-yl {[trans-4-({[(2-{6-[(2-hydroxyethyl)amino]pyridin-3-yl}quinolin-4-yl)carbonyl]amino}methyl)cyclohexyl]methyl}carbamate]
0.22 | 0.07 | CN(C)[C@H]1CCN(c2ccc(-c3cc(C(=O)NC[C@H]4CC[C@H](CNC(=O)OC(C)(C)C)CC4)c4ccccc4n3)cn2)C1 [Example 160, tert-Butyl{[trans-4-({[(2-{6-[(3S)-3-(dimethylamino)-pyrrolidin-1-yl]pyridin-3-yl}quinolin-4-yl)-carbonyl]amino}methyl)cyclohexyl]methyl}carbamate]
1.19 | 0.12 | CN(C)CCC1CCN(c2cc(C(=O)NC[C@H]3CC[C@H](CNC(=O)OCC(C)(C)C)CC3)c3ccccc3n2)CC1 [Example 212, 2,2-Dimethylpropyl {[trans-4-({[(2-{4-[2-(dimethylamino)ethyl]piperidin-1-yl}quinolin-4-yl)carbonyl]amino}methyl)cyclohexyl]methyl}carbamate]
4.58 | 0.9 | CN(C)CCN1CCN(c2cc(C(=O)NC[C@H]3CC[C@H](CNC(=O)OC(C)(C)C)CC3)c3ccccc3n2)CC1=O [Example 219, tert-Butyl {[trans-4-({[(2-{4-[2-(dimethylamino)ethyl]-3-oxopiperazin-1-yl}quinolin-4-yl)carbonyl]amino}methyl)cyclohexyl]methyl}carbamate]
2.96 | 0.97 | CC(=O)NCC1CCN(c2cc(C(=O)NC[C@H]3CC[C@H](CNC(=O)OC(C)(C)C)CC3)c3ccccc3n2)CC1 [Example 191, tert-Butyl [(trans-4-{[({2-[4-(acetamidomethyl)piperidin-1-yl]quinolin-4-yl}carbonyl)amino]methyl}cyclohexyl)methyl]carbamate]
0.41 | 0.18 | CC(C)(C)OC(=O)NC[C@H]1CC[C@H](CNC(=O)c2cc(-c3ccc(N4CCCC(O)C4)nc3)nc3ccccc23)CC1 (relative stereo) [Example 157, tert-Butyl[(trans-4-{[({2-[6-(3-hydroxypiperidin-1-yl)pyridin-3-yl]-quinolin-4-yl}carbonyl)amino]methyl}cyclohexyl)methyl]carbamate]
1.67 | 0.42 | CN1CCN(c2ccc(-c3cc(C(=O)NC[C@H]4CC[C@H](CNC(=O)OCC5CCOC5)CC4)c4ccccc4n3)cn2)CC1 (stereo partly drawn) [Example 126, Tetrahydrofuran-3-ylmethyl[(trans-4-{[({2-[6-(4-methylpiperazin-1-yl)pyridin-3-yl]quinolin-4-yl}carbonyl)amino]methyl}cyclohexyl)methyl]carbamate]
0.82 | 0.41 | Cn1cc(CNc2ccc(-c3cc(C(=O)NC[C@H]4CC[C@H](CNC(=O)OC(C)(C)C)CC4)c4ccccc4n3)cn2)cn1 [Example 166, tert-Butyl({trans-4-[({[2-(6-{[(1-methyl-1H-pyrazol-4-yl)methyl]amino}-pyridin-3-yl)quinolin-4-yl]carbonyl}amino)-methyl]cyclohexyl}methyl)carbamate]
6.31 | 0.68 | CN(C)CCC1CCN(c2cc(C(=O)NC[C@H]3CC[C@H](CNC(=O)OC4CCOCC4)CC3)c3ccccc3n2)CC1 [Example 224, Tetrahydro-2H-pyran-4-yl {[trans-4-({[(2-{4-[2-(dimethylamino)ethyl]piperidin-1-yl}quinolin-4-yl)carbonyl]amino}methyl)cyclohexyl]methyl}carbamate]
4.77 | 1.37 | CC(C#N)OC(=O)NC[C@H]1CC[C@H](CNC(=O)c2cc(-c3ccc(N4CCN(C)CC4)nc3)nc3ccccc23)CC1 (stereo partly drawn) [Example 121, 1-Cyanoethyl[(trans-4-{[({2-[6-(4-methylpiperazin-1-yl)pyridin-3-yl]quinolin-4-yl}carbonyl)amino]methyl}cyclohexyl)methyl]carbamate]
9.63 | 1.18 | CC(C)(C)OC(=O)NC[C@H]1CC[C@H](CNC(=O)c2cc(N3CCN(C(=O)CO)CC3)nc3ccccc23)CC1 [Example 220, tert-Butyl [(trans-4-{[({2-[4-(hydroxyacetyl)piperazin-1-yl]quinolin-4-yl}carbonyl)amino]methyl}cyclohexyl)methyl]carbamate]
0.19 | 0.05 | CC(C)(C)OC(=O)NC[C@H]1CC[C@H](CNC(=O)c2cc(-c3ccc(N4CCNCC4)nc3)nc3ccccc23)CC1 [Example 154, tert-Butyl({trans-4-[({[2-(6-piperazin-1-ylpyridin-3-yl)-quinolin-4-yl]-carbonyl}amino)methyl]cyclohexyl}methyl)carbamate]
1.63 | 0.23 | COCCN(C)CCC1CCN(c2cc(C(=O)NC[C@H]3CC[C@H](CNC(=O)OC(C)(C)C)CC3)c3ccccc3n2)CC1 [Example 227, tert-Butyl({trans-4-[({[2-(4-{2-[(2-methoxyethyl)(methyl)-amino]ethyl}piperidin-1-yl)quinolin-4-yl]carbonyl}amino)-methyl]cyclohexyl}-methyl)carbamate]
2.22 | 0.27 | CN(C)CCOC1CCN(c2cc(C(=O)NC[C@H]3CC[C@H](CNC(=O)OC(C)(C)C)CC3)c3ccccc3n2)CC1 [Example 211, tert-Butyl {[trans-4-({[(2-{4-[2-(dimethylamino)ethoxy]piperidin-1-yl}quinolin-4-yl)carbonyl]amino}methyl)cyclohexyl]methyl}carbamate]
0.23 | 0.13 | CC(C)(C)OC(=O)NC[C@H]1CC[C@H](CNC(=O)c2cc(-c3ccc(N4CCC(C(N)=O)CC4)nc3)nc3ccccc23)CC1 [Example 153, tert-Butyl[(trans-4-{[({2-[6-(4-carbamoylpiperidin-1-yl)pyridin-3-yl]-quinolin-4-yl}carbonyl)amino]-methyl}cyclohexyl)methyl]carbamate]
0.7 | 0.08 | CC(C)(C)OC(=O)NC[C@H]1CC[C@H](CNC(=O)c2cc(N3CCC(CCN4CCCC4)CC3)nc3ccccc23)CC1 [Example 231, tert-Butyl[(trans-4-{[({2-[4-(2-pyrrolidin-1-ylethyl)piperidin-1-yl]quinolin-4-yl}carbonyl)amino]-methyl}cyclohexyl)-methyl]carbamate]
1.2 | 0.48 | Cc1nc(CNc2ccc(-c3cc(C(=O)NC[C@H]4CC[C@H](CNC(=O)OC(C)(C)C)CC4)c4ccccc4n3)cn2)no1 [Example 170, tert-Butyl({trans-4-[({[2-(6-{[(5-methyl-1,2,4-oxadiazol-3-yl)methyl]amino}-pyridin-3-yl)quinolin-4-yl]carbonyl}amino)-methyl]cyclohexyl}-methyl)carbamate]
3.04 | 1.05 | CC(O)C(C)Oc1ccc(-c2cc(C(=O)NC[C@H]3CC[C@H](CNC(=O)OC(C)(C)C)CC3)c3ccccc3n2)cn1 (relative stereo) [Example 176, tert-Butyl[(trans-4-{[({2-[6-(2-hydroxy-1-methylpropoxy)-pyridin-3-yl]-quinolin-4-yl}-carbonyl)amino]-methyl}cyclohexyl)methyl]carbamate]

SMILES | IC50 [1] [µM] | IC50 [2] [µM]
CC(C)(C)OC(=O)NC[C@H]1CC[C@H](CNC(=O)c2cc(N3CCC(CCN4CC(C(=O)O)C4)CC3)nc3ccccc23)CC1 [Example 235, 1-{2-[1-(4-{[(trans-4-{[(tert-Butoxycarbonyl)amino]methyl}cyclohexyl)methyl]-carbamoyl}quinolin-2-yl)piperidin-4-yl]ethyl}azetidine-3-carboxylic Acid] | 1.84 | 0.23
